Our source for the GI50 and TGI values is PubChem BioAssay (NCI).

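Briefly, cells in 96-well plates were exposed to five compound concentrations for 48 h, and endpoints were estimated by linear interpolation. GI50 = concentration required for 50% inhibition of growth. TGI denotes the concentration required for complete inhibition of growth.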

Among the test systems are DU-145 prostate; HS 578T breast; IGROV1 ovarian; MDA-MB-435; OVCAR-8 ovarian; PC-3 prostate.
Holding throughout (test): DTP human tumour cell line panel, 48 h

As for `COC(=O)[C@]12CC[C@@H](C)[C@H](C)[C@@H]1C1=CC[C@@H]3[C@@]4(C)CC(=O)[C@H](O)[C@@]5(C)COC(=C45)C[C@@]3(C)[C@]1(C)CC2`, the GI50 was 18.7 µM in the test on DU-145 prostate; 18.4 µM in the test with HS 578T breast; 19300 nM in the test on IGROV1 ovarian; 17000 nM with MDA-MB-435; 19.6 µM in the test with OVCAR-8 ovarian; 16900 nM with PC-3 prostate. Also, the concentration for total growth inhibition (TGI) with DU-145 prostate amounted to 35.1 µM; in the test on HS 578T breast it was 45 µM; with IGROV1 ovarian it was 37.6 µM; with MDA-MB-435 it was 32.5 µM; in the test with OVCAR-8 ovarian, 39.2 µM; in the test on PC-3 prostate it was 33.8 µM.

Take `CC1(C)CC(=O)C2=C(C1)NC(SSC1=C(C#N)C(c3ccccc3)C3=C(CC(C)(C)CC3=O)N1)=C(C#N)C2c1ccccc1` (stereo not given): the GI50 was 44.7 µg/mL with DU-145 prostate; 30.5 µg/mL in the test with HS 578T breast; 28.3 µg/mL in the test with IGROV1 ovarian; 25.7 µg/mL in the test on MDA-MB-435; 31.6 µg/mL in the test with OVCAR-8 ovarian; 26.1 µg/mL with PC-3 prostate. For the same molecule, the TGI was found to be 126 µg/mL in the test on DU-145 prostate; 68.1 µg/mL in the test with HS 578T breast; 50.1 µg/mL with IGROV1 ovarian; 49.9 µg/mL with MDA-MB-435; 57.4 µg/mL in the test with OVCAR-8 ovarian; 47.5 µg/mL in the test with PC-3 prostate.

As for `O=C1C=C[C@]2(C[C@@H](c3cccc(C(F)(F)F)c3)O[C@@H](c3cccc(C(F)(F)F)c3)O2)O1`, the GI50 in the test with DU-145 prostate was 5.72 µM; with HS 578T breast it was 12.2 µM; in the test on IGROV1 ovarian, 1660 nM; in the test on MDA-MB-435, 1600 nM; in the test on OVCAR-8 ovarian, 3.03 µM; in the test with PC-3 prostate, 2400 nM. The TGI turned out to be 18.4 µM with DU-145 prostate; 60.7 µM in the test on HS 578T breast; 4.41 µM in the test on IGROV1 ovarian; 3.39 µM in the test with MDA-MB-435; 13.4 µM in the test on OVCAR-8 ovarian; 8.27 µM in the test on PC-3 prostate.

As for `C[C@@H](c1ccc2nccn2c1)n1nnc2ncc(-c3cnn(C)c3)nc21`, the GI50 with HS 578T breast was over 100 µM; in the test with IGROV1 ovarian, over 100000 nM; with MDA-MB-435 it was over 100000 nM; with OVCAR-8 ovarian, over 100 µM; in the test on PC-3 prostate, over 100000 nM. Further, the concentration for total growth inhibition (TGI) in the test on HS 578T breast, with IGROV1 ovarian, in the test on MDA-MB-435, with OVCAR-8 ovarian and in the test with PC-3 prostate was over 100 µM each time.

In the case of `CCOC(=O)c1cnc(SCc2ccc(Cl)c(Cl)c2)nc1N1CC1`, the GI50 was 2.98 µM in the test with DU-145 prostate; 2.31 µM with HS 578T breast; 2200 nM in the test with IGROV1 ovarian; 1970 nM with MDA-MB-435; 3.6 µM in the test with OVCAR-8 ovarian; 2740 nM in the test on PC-3 prostate. Moreover, the TGI with DU-145 prostate was 9.73 µM; in the test on HS 578T breast, 7.01 µM; in the test with MDA-MB-435, 11.4 µM; in the test with OVCAR-8 ovarian, 30.2 µM; with PC-3 prostate, 15.2 µM.

As to `COc1ccc(N(C)c2nc(C)nc3ccccc23)cc1`, the 50% growth inhibitory concentration (GI50) was under 0.01 µM with HS 578T breast; under 10 nM with IGROV1 ovarian; under 10 nM with MDA-MB-435; under 0.01 µM in the test on OVCAR-8 ovarian; under 10 nM with PC-3 prostate. The TGI in the test with HS 578T breast was over 100 µM; with IGROV1 ovarian, over 100 µM; in the test with MDA-MB-435, under 0.01 µM; in the test on OVCAR-8 ovarian it was over 63.1 µM; in the test on PC-3 prostate, 36.8 µM.

As to `O=c1c(Cl)nnc2sc3ccccc3n12`, the GI50 is 57 µM in the test on DU-145 prostate; 85.4 µM with HS 578T breast; 31900 nM with IGROV1 ovarian; 42000 nM with MDA-MB-435; 40.8 µM with OVCAR-8 ovarian; 47800 nM with PC-3 prostate. For the same molecule, the TGI in the test with DU-145 prostate, with HS 578T breast, in the test with IGROV1 ovarian, in the test with MDA-MB-435, in the test with OVCAR-8 ovarian and in the test with PC-3 prostate was over 100 µM throughout.

As to `C1=CN2C[n+]3cccc(OCc4ccccc4)c3N=C2C(OCc2ccccc2)=C1`, the TGI in the test with DU-145 prostate is over 100 µM; in the test with HS 578T breast, 21.5 µM; with IGROV1 ovarian, 27.7 µM; with MDA-MB-435, 33.2 µM; in the test on OVCAR-8 ovarian, over 100 µM; with PC-3 prostate, over 100 µM.

Take `COc1ccc(/C(=C/c2cc(OC)c(OC)c(OC)c2)[N+](=O)[O-])cc1`: the GI50 with DU-145 prostate is 1.75 µM; in the test on HS 578T breast, 3.21 µM; in the test on IGROV1 ovarian it was 1800 nM; with MDA-MB-435, 1810 nM; with OVCAR-8 ovarian, 2.67 µM; in the test with PC-3 prostate, 1950 nM. The TGI in the test on DU-145 prostate is 3.14 µM; in the test on HS 578T breast, 21.4 µM; with IGROV1 ovarian, 3.94 µM; in the test on MDA-MB-435, 3.99 µM; with OVCAR-8 ovarian, 8.12 µM; with PC-3 prostate it was 3.88 µM.

On to `O=C1C2CC(Cl)C(SSC3CC4C(=O)N(SC(Cl)(Cl)C(Cl)Cl)C(=O)C4CC3Cl)CC2C(=O)N1SC(Cl)(Cl)C(Cl)Cl` (stereo not given), for which the concentration for total growth inhibition (TGI) is 9.44 µM in the test on DU-145 prostate; over 22.8 µM in the test with HS 578T breast; 3.06 µM in the test on IGROV1 ovarian; 6.23 µM with MDA-MB-435; 3.5 µM in the test with OVCAR-8 ovarian; 2.79 µM in the test on PC-3 prostate.

Turning to `OB([O][Hg][c]1ccccc1)[O][Hg][c]1ccccc1`, the GI50 in the test with DU-145 prostate was 0.873 µM; in the test on IGROV1 ovarian, 94.9 nM; in the test on MDA-MB-435, 475 nM; in the test on OVCAR-8 ovarian it was 0.522 µM; in the test on PC-3 prostate, 758 nM. Also, the TGI is 2.29 µM in the test with DU-145 prostate; 0.401 µM in the test with IGROV1 ovarian; 1.63 µM in the test on MDA-MB-435; 3.53 µM in the test with OVCAR-8 ovarian; 2.42 µM with PC-3 prostate.

Consider `O=C(Nc1ccncc1)C(=O)c1cn(S(=O)(=O)c2ccc(Br)cc2)c2ccccc12`, for which the GI50 in the test on DU-145 prostate is 19 µM; in the test on HS 578T breast it was over 100 µM; in the test with IGROV1 ovarian, 8550 nM; with MDA-MB-435, 459 nM; with OVCAR-8 ovarian, 5.9 µM; in the test on PC-3 prostate, 8870 nM. For the same molecule, the concentration for total growth inhibition (TGI) with DU-145 prostate is over 100 µM; in the test on HS 578T breast it was over 100 µM; in the test on IGROV1 ovarian, over 100 µM; in the test with MDA-MB-435, 3.49 µM; with OVCAR-8 ovarian, over 100 µM; in the test on PC-3 prostate it was over 100 µM.

Broadly, the GI50 is the concentration at which growth is held to half of that of the control. The TGI is the concentration giving total growth inhibition. A high value points to less potent growth arrest.
